Experimental findings from US8518945B2, “Pyrrolopyrazine kinase inhibitors” (Hoffmann-La Roche Inc., priority 2010, dated 2013) are described below.

The target in this assay is T1, h-jak3(810-1124) (JAK3: Recombinant human kinase domain) (Homo sapiens, UniProt P52333).
T1 construct: jak3(810- 1124)-sf9-c; made in house; host or cells: Sf9
As to the kind of experiment: Determination of IC50 of Janus Kinase (JAK) inhibition: JAK3 radioactive end-point 33P-ATP kinase assay. It counts as biochemical. To be noted: no additive; ATP 1.5 uM, peptide 50 uM, 20 minutes, room temperature; read-out: Ic50 h-jak3(810-1124)-sf9-c: no additive.

In general, IC50 refers to the concentration that inhibits the measured activity by half.

T1 sequence (P52333 810-1124): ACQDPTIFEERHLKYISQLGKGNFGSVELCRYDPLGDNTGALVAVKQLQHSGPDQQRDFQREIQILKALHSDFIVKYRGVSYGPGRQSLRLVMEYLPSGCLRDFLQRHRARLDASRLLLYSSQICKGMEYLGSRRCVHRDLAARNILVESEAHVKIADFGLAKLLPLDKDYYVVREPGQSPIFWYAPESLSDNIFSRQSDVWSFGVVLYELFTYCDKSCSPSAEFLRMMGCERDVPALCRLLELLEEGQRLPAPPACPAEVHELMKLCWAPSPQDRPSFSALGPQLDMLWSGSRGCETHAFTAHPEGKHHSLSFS

As for `CC(C)(C)[C@@H](NC(=O)c1c[nH]c2ncc(-c3cccc(N4CCCC4)c3)nc12)C(=O)N1CCC(C#N)CC1` [Example I-51, 2-(3-Pyrrolidin-1-yl-phenyl)-5H-pyrrolo[2,3-b]pyrazine-7-carboxylic acid [(R)-1-(4-cyano-piperidine-1-carbonyl)-2,2-dimethyl-propyl]-amide], the IC50 amounted to 111 nM.

Consider `Cc1nc(-c2cnc3[nH]cc(C(=O)N[C@@H](C(=O)N4CC(C#N)C4)C(C)(C)C)c3n2)cn1-c1cccc(F)c1` [Example I-158, 2-[1-(3-Fluoro-phenyl)-2-methyl-1H-imidazol-4-yl]-5H-pyrrolo[2,3-b]pyrazine-7-carboxylic acid [(R)-1-(3-cyano-azetidine-1-carbonyl)-2,2-dimethyl-propyl]-amide], for which the IC50 amounted to 2.34 nM.

As to `N#CC1CCN(C(=O)[C@H](NC(=O)c2c[nH]c3ncc(C4CC4)nc23)C2CCCC2)CC1` [Example I-45, 2-Cyclopropyl-5H-pyrrolo[2,3-b]pyrazine-7-carboxylic acid [(R)-2-(4-cyano-piperidin-1-yl)-1-cyclopentyl-2-oxo-ethyl]-amide], the IC50 stood at 0.7 nM.

Consider `N#CC1CN(C(=O)[C@H](NC(=O)c2c[nH]c3ncc(-c4ccccc4)nc23)C2CC2)C1` [Example I-166, 2-Phenyl-5H-pyrrolo[2,3-b]pyrazine-7-carboxylic acid [(R)-2-(3-cyano-azetidin-1-yl)-1-cyclopropyl-2-oxo-ethyl]-amide], for which the IC50 is at most 0.32 nM.

Regarding `CC(C)(C)[C@@H](NC(=O)c1c[nH]c2ncc(C3CC3)nc12)C(=O)N1CCc2ccccc21` [Example I-138, 2-Cyclopropyl-5H-pyrrolo[2,3-b]pyrazine-7-carboxylic acid [(R)-1-(2,3-dihydro-indole-1-carbonyl)-2,2-dimethyl-propyl]-amide], the IC50 came out at 19.1 nM.

For the compound `N#CC1CN(C(=O)[C@H](NC(=O)c2c[nH]c3ncc(-c4cn(-c5cc(F)ccc5F)cn4)nc23)C2CC2)C1` [Example I-132, 2-[1-(2,5-Difluoro-phenyl)-1H-imidazol-4-yl]-5H-pyrrolo[2,3-b]pyrazine-7-carboxylic acid [(R)-2-(3-cyano-azetidin-1-yl)-1-cyclopropyl-2-oxo-ethyl]-amide], the IC50 is 0.49 nM.

With `O=C(N[C@@H](C(=O)N1CCS(=O)(=O)CC1)C1CC1)c1c[nH]c2ncc(C3CC3)nc12` [Example I-88, 2-Cyclopropyl-5H-pyrrolo[2,3-b]pyrazine-7-carboxylic acid [(R)-1-cyclopropyl-2-(1,1-dioxo-1λ^6-thiomorpholin-4-yl)-2-oxo-ethyl]-amide], the IC50 is 1.23 nM.

With `CNC(=O)c1ccnc(-c2cnc3[nH]cc(C(=O)N[C@H](C)C(=O)N4CC(C#N)C4)c3n2)c1` [Example I-155, 2-(4-Methylcarbamoyl-pyridin-2-yl)-5H-pyrrolo[2,3-b]pyrazine-7-carboxylic acid [(R)-2-(3-cyano-azetidin-1-yl)-1-methyl-2-oxo-ethyl]-amide], the IC50 stood at 10.5 nM.

Take `CC(=O)N1CCN(C(=O)[C@H](NC(=O)c2c[nH]c3ncc(C4CC4)nc23)C(C)(C)C)CC1` [Example I-57, 2-Cyclopropyl-5H-pyrrolo[2,3-b]pyrazine-7-carboxylic acid [(R)-1-(4-acetyl-piperazine-1-carbonyl)-2,2-dimethyl-propyl]-amide]: the IC50 was at most 0.32 nM.

For `CC(C)(C)[C@@H](NC(=O)c1c[nH]c2ncc(C3CC3)nc12)C(=O)N1CCC(F)(F)CC1` [Example I-52, 2-Cyclopropyl-5H-pyrrolo[2,3-b]pyrazine-7-carboxylic acid [(R)-1-(4,4-difluoro-piperidine-1-carbonyl)-2,2-dimethyl-propyl]-amide], the IC50 amounted to 440 nM.

For `CC(C)(C)C[C@@H](NC(=O)c1c[nH]c2ncc(C3CC3)nc12)C(=O)N1CCC(C#N)CC1` [Example I-49, 2-Cyclopropyl-5H-pyrrolo[2,3-b]pyrazine-7-carboxylic acid [(R)-1-(4-cyano-piperidine-1-carbonyl)-3,3-dimethyl-butyl]-amide], the IC50 turned out to be 1.01 nM.

Turning to `O=C(N[C@@H](C(=O)N1CCCC1)C1CCCCC1)c1c[nH]c2ncc(C3CC3)nc12` [Example I-37, 2-Cyclopropyl-5H-pyrrolo[2,3-b]pyrazine-7-carboxylic acid ((R)-1-cyclohexyl-2-oxo-2-pyrrolidin-1-yl-ethyl)-amide], the IC50 was 1.8 nM.

Consider `Cn1cc(-c2cnc3[nH]cc(C(=O)N[C@@H](C(=O)N4C[C@@H]5[C@@H](CO)[C@@H]5C4)C4CC4)c3n2)cn1` [Example I-87, 2-(1-Methyl-1H-pyrazol-4-yl)-5H-pyrrolo[2,3-b]pyrazine-7-carboxylic acid [(R)-1-cyclopropyl-2-((1S,5R,6R)-6-hydroxymethyl-3-aza-bicyclo[3.1.0]hex-3-yl)-2-oxo-ethyl]-amide], for which the IC50 was found to be 4.49 nM.

Consider `CNC(=O)c1cccc(-c2cnc3[nH]cc(C(=O)N[C@H](C)C(=O)N4CC(C#N)C4)c3n2)c1` [Example I-110, 2-(3-Methylcarbamoyl-phenyl)-5H-pyrrolo[2,3-b]pyrazine-7-carboxylic acid [(R)-2-(3-cyano-azetidin-1-yl)-1-methyl-2-oxo-ethyl]-amide], for which the IC50 worked out at 1.22 nM.

As to `C[C@@H](NC(=O)c1c[nH]c2ncc(C3CC3)nc12)C(=O)N1CCC(C#N)C1` (stereo partly drawn) [Example I-14, 2-Cyclopropyl-5H-pyrrolo[2,3-b]pyrazine-7-carboxylic acid [(R)-2-(3-cyano-pyrrolidin-1-yl)-1-methyl-2-oxo-ethyl]-amide], the IC50 is 8.02 nM.

In the case of `N#CC1CCN(C(=O)[C@H](NC(=O)c2c[nH]c3ncc(-c4cn(C5CCCC5)cn4)nc23)C2CC2)CC1` [Example I-121, 2-(1-Cyclopentyl-1H-imidazol-4-yl)-5H-pyrrolo[2,3-b]pyrazine-7-carboxylic acid [(R)-2-(4-cyano-piperidin-1-yl)-1-cyclopropyl-2-oxo-ethyl]-amide], the IC50 came out at 1.67 nM.

Turning to `CCn1cc(-c2cnc3[nH]cc(C(=O)N[C@@H](C(=O)N4CCCC4)C(C)(C)C)c3n2)cn1` [Example I-13, 2-(1-Ethyl-1H-pyrazol-4-yl)-5H-pyrrolo[2,3-b]pyrazine-7-carboxylic acid [(R)-2,2-dimethyl-1-(pyrrolidine-1-carbonyl)-propyl]-amide], the half-inhibitory concentration (IC50) stood at 4.53 nM.

`COc1ccnc2cc(-c3cnc4[nH]cc(C(=O)N[C@@H](C(=O)N5CC(C#N)C5)C5CC5)c4n3)sc12` [Example I-99, 2-(7-Methoxy-thieno[3,2-b]pyridin-2-yl)-5H-pyrrolo[2,3-b]pyrazine-7-carboxylic acid [(R)-2-(3-cyano-azetidin-1-yl)-1-cyclopropyl-2-oxo-ethyl]-amide]: the IC50 was 0.78 nM.

Turning to `COC1CCN(C(=O)[C@@H](C)NC(=O)c2c[nH]c3ncc(C4CC4)nc23)C1` (stereo partly drawn) [Example I-9, 2-Cyclopropyl-5H-pyrrolo[2,3-b]pyrazine-7-carboxylic acid [(R)-2-(3-methoxy-pyrrolidin-1-yl)-1-methyl-2-oxo-ethyl]-amide], the IC50 came out at 52.9 nM.

In the case of `CC(C)(C)[C@@H](NC(=O)c1c[nH]c2ncc(-c3cnc(Cl)s3)nc12)C(=O)N1CCC(C#N)CC1` [Example I-156, 2-(2-Chloro-thiazol-5-yl)-5H-pyrrolo[2,3-b]pyrazine-7-carboxylic acid [(R)-1-(4-cyano-piperidine-1-carbonyl)-2,2-dimethyl-propyl]-amide], the IC50 came out at 5.97 nM.

As to `C[C@@H](NC(=O)c1c[nH]c2ncc(-c3cccc(C(=O)NCC4CC4)c3)nc12)C(=O)N1CC(C#N)C1` [Example I-112, 2-[3-(Cyclopropylmethyl-carbamoyl)-phenyl]-5H-pyrrolo[2,3-b]pyrazine-7-carboxylic acid [(R)-2-(3-cyano-azetidin-1-yl)-1-methyl-2-oxo-ethyl]-amide], the IC50 came out at 0.97 nM.

With `N#CC1CN(C(=O)[C@H](NC(=O)c2c[nH]c3ncc(C4CC4)nc23)C2CCOCC2)C1` [Example I-136, 2-Cyclopropyl-5H-pyrrolo[2,3-b]pyrazine-7-carboxylic acid [(R)-2-(3-cyano-azetidin-1-yl)-2-oxo-1-(tetrahydro-pyran-4-yl)-ethyl]-amide], the IC50 is 7.11 nM.

As for `COc1ccnc2cc(-c3cnc4[nH]cc(C(=O)N[C@H](C)C(=O)N5CC(C#N)C5)c4n3)sc12` [Example I-103, 2-(7-Methoxy-thieno[3,2-b]pyridin-2-yl)-5H-pyrrolo[2,3-b]pyrazine-7-carboxylic acid [(R)-2-(3-cyano-azetidin-1-yl)-1-methyl-2-oxo-ethyl]-amide], the IC50 was determined as 8.34 nM.

As for `C[C@@H](NC(=O)c1c[nH]c2ncc(-c3cc4nccc(OCC(F)(F)F)c4s3)nc12)C(=O)N1CC(C#N)C1` [Example I-102, 2-[7-(2,2,2-Trifluoro-ethoxy)-thieno[3,2-b]pyridin-2-yl]-5H-pyrrolo[2,3-b]pyrazine-7-carboxylic acid [(R)-2-(3-cyano-azetidin-1-yl)-1-methyl-2-oxo-ethyl]-amide], the IC50 worked out at 43.1 nM.

For `C[C@@H](NC(=O)c1c[nH]c2ncc(-c3cc(-n4cccc4)ccn3)nc12)C(=O)N1CC(C#N)C1` [Example I-153, 2-(4-Pyrrol-1-yl-pyridin-2-yl)-5H-pyrrolo[2,3-b]pyrazine-7-carboxylic acid [(R)-2-(3-cyano-azetidin-1-yl)-1-methyl-2-oxo-ethyl]-amide], the IC50 was 9.02 nM.

`N#CC1CN(C(=O)[C@H](NC(=O)c2c[nH]c3ncc(N4Cc5c(Cl)cccc5C4=O)nc23)C2CC2)C1` [Example I-95, 2-(4-Chloro-1-oxo-1,3-dihydro-isoindol-2-yl)-5H-pyrrolo[2,3-b]pyrazine-7-carboxylic acid [(R)-2-(3-cyano-azetidin-1-yl)-1-cyclopropyl-2-oxo-ethyl]-amide]: the IC50 was found to be 2.73 nM.

Regarding `CCn1cc(-c2cnc3[nH]cc(C(=O)N[C@H](CC(F)(F)F)C(=O)N4CCC(C#N)CC4)c3n2)cn1` [Example I-106, 2-(1-Ethyl-1H-pyrazol-4-yl)-5H-pyrrolo[2,3-b]pyrazine-7-carboxylic acid [(R)-1-(4-cyano-piperidine-1-carbonyl)-3,3,3-trifluoro-propyl]-amide], the IC50 worked out at 2.61 nM.
